According to the NIST ThermoML archive (doi:10.1016/j.jct.2008.10.007):
Numbers after ± are expanded uncertainties.

Experiments:
[1] = xn = mol fraction of the nth substance listed; conditions: 298.15 K, 101 kPa, Liquid, Vibrating tube method
[2] = excess molar enthalpy (molar enthalpy of mixing); xn = mol fraction of the nth substance listed; conditions: 298.15 K, 101 kPa, Liquid, Calvet calorimetry

ClCCCCCCCl [1,6-dichlorohexane] + CCCOC(=O)CC
Conditions | excess molar enthalpy [kcal/mol] | mass density [kg/m3]
[1], x2 = 0.0665 | – | 1052.5 ± 5.3
[1], x2 = 0.1321 | – | 1041.17 ± 4.7
[1], x2 = 0.1948 | – | 1030.19 ± 4
[1], x2 = 0.2568 | – | 1019.24 ± 3.5
[1], x2 = 0.3171 | – | 1008.42 ± 3
[1], x2 = 0.3785 | – | 997.31 ± 2.5
[1], x2 = 0.556 | – | 964.22 ± 1.5
[1], x2 = 0.7294 | – | 930.71 ± 0.82
[1], x2 = 0.7852 | – | 919.58 ± 0.65
[1], x2 = 0.8399 | – | 908.58 ± 0.51
[1], x2 = 0.8955 | – | 897.26 ± 0.39
[1], x2 = 0.949 | – | 886.33 ± 0.3
[2], x2 = 0.0728 | -0.00598 ± 0.000239 | –
[2], x2 = 0.1664 | -0.0131 ± 0.000478 | –
[2], x2 = 0.2656 | -0.0232 ± 0.000478 | –
[2], x2 = 0.3635 | -0.0354 ± 0.000956 | –
[2], x2 = 0.4374 | -0.0418 ± 0.000956 | –
[2], x2 = 0.4861 | -0.0459 ± 0.000956 | –
[2], x2 = 0.5174 | -0.0483 ± 0.0012 | –
[2], x2 = 0.5675 | -0.0495 ± 0.0012 | –
[2], x2 = 0.6298 | -0.0483 ± 0.0012 | –
[2], x2 = 0.7081 | -0.043 ± 0.000956 | –
[2], x2 = 0.7895 | -0.0373 ± 0.000956 | –
[2], x2 = 0.8738 | -0.0237 ± 0.000717 | –
[2], x2 = 0.9478 | -0.011 ± 0.000478 | –

ClCCCCCCCl [1,6-dichlorohexane] + CCCOC(C)=O
Conditions | excess molar enthalpy [kcal/mol] | mass density [kg/m3]
[1], x2 = 0.0708 | – | 1053.44 ± 5.3
[1], x2 = 0.1405 | – | 1042.95 ± 4.6
[1], x2 = 0.208 | – | 1032.5 ± 4
[1], x2 = 0.2725 | – | 1022.22 ± 3.4
[1], x2 = 0.3392 | – | 1011.28 ± 2.9
[1], x2 = 0.4656 | – | 989.61 ± 2
[1], x2 = 0.584 | – | 968.14 ± 1.4
[1], x2 = 0.6947 | – | 946.95 ± 0.95
[1], x2 = 0.8017 | – | 925.34 ± 0.61
[1], x2 = 0.8514 | – | 914.87 ± 0.49
[1], x2 = 0.902 | – | 903.96 ± 0.39
[1], x2 = 0.9502 | – | 893.34 ± 0.3
[2], x2 = 0.0861 | 0.00598 ± 0.000239 | –
[2], x2 = 0.1716 | 0.00478 ± 0.000239 | –
[2], x2 = 0.2676 | -0.00311 ± 0.000239 | –
[2], x2 = 0.3149 | -0.00765 ± 0.000239 | –
[2], x2 = 0.3896 | -0.0146 ± 0.000478 | –
[2], x2 = 0.4563 | -0.0196 ± 0.000478 | –
[2], x2 = 0.5169 | -0.0239 ± 0.000717 | –
[2], x2 = 0.5684 | -0.0253 ± 0.000717 | –
[2], x2 = 0.5761 | -0.0246 ± 0.000717 | –
[2], x2 = 0.6268 | -0.0241 ± 0.000717 | –
[2], x2 = 0.6841 | -0.022 ± 0.000478 | –
[2], x2 = 0.7455 | -0.0194 ± 0.000478 | –
[2], x2 = 0.8101 | -0.0153 ± 0.000478 | –
[2], x2 = 0.8793 | -0.0105 ± 0.000239 | –
[2], x2 = 0.9463 | -0.00574 ± 0.000239 | –

CCCOC(=O)CCC [propyl butanoate] + ClCCCCCCCl
Conditions | excess molar enthalpy [kcal/mol] | mass density [kg/m3]
[1], x1 = 0.1123 | – | 1041.34 ± 4.8
[1], x1 = 0.1686 | – | 1030.2 ± 4.2
[1], x1 = 0.2265 | – | 1018.77 ± 3.7
[1], x1 = 0.2841 | – | 1007.46 ± 3.2
[1], x1 = 0.3424 | – | 995.99 ± 2.8
[1], x1 = 0.4025 | – | 984.2 ± 2.4
[1], x1 = 0.4598 | – | 973.01 ± 2
[1], x1 = 0.5766 | – | 950.16 ± 1.4
[1], x1 = 0.6959 | – | 926.91 ± 0.91
[1], x1 = 0.755 | – | 915.37 ± 0.73
[1], x1 = 0.8145 | – | 903.79 ± 0.57
[1], x1 = 0.8778 | – | 891.49 ± 0.43
[1], x1 = 0.9367 | – | 880.14 ± 0.32
[1], x1 = 1 | – | 867.9 ± 0.23
[2], x1 = 0.0619 | -0.00526 ± 0.000239 | –
[2], x1 = 0.1445 | -0.011 ± 0.000478 | –
[2], x1 = 0.2343 | -0.0182 ± 0.000478 | –
[2], x1 = 0.3207 | -0.0258 ± 0.000717 | –
[2], x1 = 0.3911 | -0.0327 ± 0.000717 | –
[2], x1 = 0.4594 | -0.0378 ± 0.000956 | –
[2], x1 = 0.5174 | -0.0404 ± 0.000956 | –
[2], x1 = 0.5559 | -0.0411 ± 0.000956 | –
[2], x1 = 0.6181 | -0.0402 ± 0.000956 | –
[2], x1 = 0.6903 | -0.037 ± 0.000956 | –
[2], x1 = 0.7651 | -0.0315 ± 0.000717 | –
[2], x1 = 0.849 | -0.0229 ± 0.000478 | –
[2], x1 = 0.9334 | -0.012 ± 0.000478 | –

CCCOC(=O)CCC [propyl butanoate] + ClCCCCCCl
Conditions | excess molar enthalpy [kcal/mol] | mass density [kg/m3]
[1], x1 = 0.0527 | – | 1081.35 ± 5.8
[1], x1 = 0.1057 | – | 1067.82 ± 5.1
[1], x1 = 0.1578 | – | 1054.69 ± 4.5
[1], x1 = 0.2095 | – | 1041.82 ± 4
[1], x1 = 0.2663 | – | 1027.99 ± 3.5
[1], x1 = 0.3782 | – | 1001.4 ± 2.6
[1], x1 = 0.4944 | – | 974.66 ± 1.8
[1], x1 = 0.6144 | – | 947.96 ± 1.2
[1], x1 = 0.7409 | – | 920.76 ± 0.77
[1], x1 = 0.804 | – | 907.58 ± 0.59
[1], x1 = 0.8678 | – | 894.43 ± 0.45
[1], x1 = 0.9363 | – | 880.61 ± 0.32
[1], x1 = 1 | – | 867.9 ± 0.23
[2], x1 = 0.0559 | -0.00311 ± 0.000239 | –
[2], x1 = 0.1285 | -0.0086 ± 0.000239 | –
[2], x1 = 0.2091 | -0.0167 ± 0.000478 | –
[2], x1 = 0.2908 | -0.0258 ± 0.000717 | –
[2], x1 = 0.3699 | -0.0351 ± 0.000717 | –
[2], x1 = 0.4417 | -0.0449 ± 0.000956 | –
[2], x1 = 0.4998 | -0.0504 ± 0.0012 | –
[2], x1 = 0.553 | -0.0526 ± 0.0012 | –
[2], x1 = 0.5757 | -0.0523 ± 0.0012 | –
[2], x1 = 0.6397 | -0.0497 ± 0.0012 | –
[2], x1 = 0.71 | -0.0445 ± 0.000956 | –
[2], x1 = 0.7828 | -0.0368 ± 0.000956 | –
[2], x1 = 0.8561 | -0.0265 ± 0.000717 | –
[2], x1 = 0.9304 | -0.0146 ± 0.000478 | –
